This note sets out measurements from the supplement of paper PMC4862054.

Where only a bound is given, the exact number is not on record here.

What all share (conditions): 72 h
The subject of assay [1] is CAL-120. How it is done: (§1)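 Drug sensitivity and resistance testing (DSRT) of breast cancer cell lines in 384-well plates, 5 concentrations in 10-fold dilutions over a compound-specific 10,000-fold range. After 72 h, cytotoxicity was read by CellTox Green fluorescence and viability by CellTiter-Glo luminescence (multiplexed), normalised to DMSO and benzethonium chloride controls. EC50 is the inflection point of the fitted dose-response curve (bottom asymptote free, so it can be relative for partial curves) and is censored at the highest tested concentration. Rows with DSS 0 (no meaningful response) were excluded.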

Assay [2] has as its system CAL-51. How it is done:
as §1

Assay [3] has as its system MDA-MB-436. The method, then:
as §1

The test system of assay [4] is CAL-148. The method, then:
as §1

Assay [5] concerns CAL-51. The procedure, abridged:
(§2)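 Breast cancer cell lines in 20 µl suspension were seeded onto 384-well plates that already held compound dissolved in 5 µl medium and were incubated for 72 h. Viability was measured by adding 2.5 µl CellTiter-Blue for 2 h at 37 °C and reading fluorescence at 560/590 nm. Each plate was normalised to vehicle and a positive kill control and checked by Z'-factor. EC50 was taken from a fitted percent-inhibition dose-response curve, censored at the highest concentration, and rows with a drug sensitivity score of zero were removed.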
This is another data set of the same source.

The subject of assay [6] is HCC1937. The procedure, abridged:
as §2

Assay [7] has as its system BT-549. The method in brief: as §2
Assay [8] has as its system CAL-120. The procedure, abridged:
as §2
This is another data set of the same source.

The test system of assay [9] is MDA-MB-231. The method in brief:
as §2

Assay [10] relates to HCC1143. The method in brief: as §2
Assay [11] relates to MDA-MB-436. The procedure, abridged:
as §2
The source holds these as a separate data set.

In assay [12] the test system is Hs578T. The method in brief: as §2
Assay [13] deals with BT-474. How it is done:
as §1

Assay [14] concerns HCC1937. The method, then: as §1
The source holds these as a separate data set.

Assay [15] deals with CAL-85-1. How it is done: as §1
For assay [16], the system named is BT-549. The method, then:
as §1
This is another data set of the same source.

Assay [17] has as its system MDA-MB-231. The method, then:
as §1
This is another data set of the same source.

The subject of assay [18] is MFM-223. The method, then:
as §1

The subject of assay [19] is Hs578T. The method, then: as §1
The source holds these as a separate data set.

Assay [20] concerns MDA-MB-468. How it is done: as §1
Assay [21] deals with HDQ-P1. The method, then: as §1
A further assay deals with MCF-10A. The method, then:
as §1

For assay [22], the system named is CAL-85-1. The method in brief:
as §2
This is another data set of the same source.

For assay [23], the system named is CAL-148. The procedure, abridged: as §2
This is another data set of the same source.

Assay [24] relates to HDQ-P1. The procedure, abridged: as §2
The source holds these as a separate data set.

Assay [25] concerns DU-4475. The method in brief: as §2
Assay [26] concerns MDA-MB-453. The method in brief:
as §2

In assay [27] the test system is HCC1599. The procedure, abridged: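 Breast cancer cell lines in 20 µl suspension were added to 384-well plates already holding compound at 5 concentrations, spaced in 10-fold steps across a compound-specific 10,000-fold range, and incubated for 72 h. CellTox Green fluorescence (485/520 nm) was read first to measure cell death, followed by CellTiter-Glo luminescence for viability after 10 min at room temperature. Each plate was normalised to 0.1 % DMSO and a positive kill control. EC50 values came from dose-response curve fits and were censored at the top concentration.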

Assay [28] relates to BT-474. The method in brief: as §2
The source holds these as a separate data set.

The test system of assay [29] is HCC1599. The procedure, abridged: as §2
The source holds these as a separate data set.

In assay [30] the test system is MFM-223. The method in brief:
as §2
This is another data set of the same source.

Assay [31] relates to MDA-MB-468. The procedure, abridged:
as §2
The source holds these as a separate data set.

The next assay concerns SK-BR-3. The method in brief: as §2
For assay [32], the system named is HCC1599. How it is done: as §1
This is another data set of the same source.

Assay [33] has as its system DU-4475. The method, then:
as §1
This is another data set of the same source.

For assay [34], the system named is MDA-MB-453. The method, then: as §1
The source holds these as a separate data set.

Assay [35] relates to HCC1143. The method, then:
as §1
This is another data set of the same source.

For `CC(C)(C)Cn1c(N)nc2ccc(-c3[nH]c(C(C)(C)C)nc3-c3ccc(F)cc3)nc21`, the “EC50, CellTox Green” value with CAL-120 [1] was above 10000 nM.
`Cc1c(N)nc([C@H](CC(N)=O)NC[C@H](N)C(N)=O)nc1C(=O)N[C@H](C(=O)N[C@H](C)[C@@H](O)[C@H](C)C(=O)N[C@H](C(=O)NCCc1nc(-c2nc(C(=O)NCCC[S+](C)C)cs2)cs1)[C@@H](C)O)[C@@H](OC1OC(CO)C(O)C(O)C1OC1OC(CO)C(O)C(OC(N)=O)C1O)c1cnc[nH]1` (stereo partly drawn) [Bleomycin]: the “EC50, CellTox Green” value with CAL-51 [2] worked out at 20.5 nM; in the assay on MDA-MB-436 [3], 7500 nM; with CAL-148 [4], 396 nM. Also, the “EC50, CellTiter-Blue viability” value with CAL-51 [5] stood at 9960 nM; in the assay on HCC1937 [6], 767 nM; with BT-549 [7] it was 16.4 nM; in the assay on CAL-120 [8], 582 nM; in the assay with MDA-MB-231 [9] it was 109 nM; in the assay on HCC1143 [10], 201 nM. The “EC50, CellTiter-Blue viability” value turned out to be 7330 nM with MDA-MB-436 [11] and 69.2 nM with Hs578T [12].
In the case of `CC(C)C[C@H](NC(=O)[C@H](CCc1ccccc1)NC(=O)CN1CCOCC1)C(=O)N[C@@H](Cc1ccccc1)C(=O)N[C@@H](CC(C)C)C(=O)[C@@]1(C)CO1` [Carfilzomib], the “EC50, CellTox Green” value is 60.2 nM in the assay on BT-474 [13]; 6.49 nM in the assay on HCC1937 [14]; 9 nM in the assay with CAL-85-1 [15]; 11.4 nM with BT-549 [16]; 34.6 nM with CAL-120 [1]; 5.31 nM with CAL-51 [2]. For the same compound, the “EC50, CellTox Green” value with MDA-MB-231 [17] was found to be 10.2 nM; in the assay on MFM-223 [18] it was 8.42 nM; in the assay with MDA-MB-436 [3], 6.94 nM; with Hs578T [19], 31.9 nM; with MDA-MB-468 [20] it was 0.78 nM; in the assay with CAL-148 [4] it was 16.1 nM. In addition, the figures for the “EC50, CellTox Green” value in the assay with HDQ-P1 [21] and in the assay on MCF-10A were 25.1 nM and 136 nM, respectively. Besides, the “EC50, CellTiter-Blue viability” value was 13.6 nM with CAL-85-1 [22]; 20.2 nM with CAL-51 [5]; 25.8 nM in the assay on CAL-148 [23]; 10.9 nM in the assay on HDQ-P1 [24]; 12.2 nM with DU-4475 [25]; 2.22 nM in the assay with MDA-MB-453 [26]. In addition, the “EC50, CellTiter-Blue viability” value in the assay on BT-474 [28] was found to be 26.9 nM; in the assay on HCC1937 [6], 2.21 nM; with BT-549 [7] it was 2.78 nM; in the assay with HCC1599 [29], 88.6 nM; in the assay on CAL-120 [8] it was 9.07 nM; in the assay on MDA-MB-231 [9], 6.44 nM. For the same compound, the “EC50, CellTiter-Blue viability” value turned out to be 8.47 nM with HCC1143 [10]; 1.94 nM with MFM-223 [30]; 14.3 nM in the assay on MDA-MB-436 [11]; 5.47 nM in the assay with Hs578T [12]; 5.66 nM in the assay on MDA-MB-468 [31]; 5.45 nM with SK-BR-3. The “EC50, CellTiter-Glo” value in the assay on HCC1599 [27] was 96.1 nM.
In the case of `Nc1nc(Cl)nc2c1ncn2[C@@H]1O[C@H](CO)[C@@H](O)[C@@H]1F` [Clofarabine], the “EC50, CellTox Green” value in the assay with CAL-85-1 [15] was 1420 nM; with CAL-51 [2], 108 nM; with MDA-MB-468 [20], above 10000 nM; with CAL-148 [4] it was 169 nM. The “EC50, CellTiter-Blue viability” value in the assay on CAL-85-1 [22] was 152 nM; with CAL-51 [5] it was 870 nM; in the assay on CAL-148 [23] it was 563 nM; in the assay with DU-4475 [25] it was 472 nM; in the assay with MDA-MB-453 [26], 484 nM; in the assay with HCC1937 [6], 180 nM. For the same compound, the “EC50, CellTiter-Blue viability” value was found to be 340 nM with BT-549 [7]; 2220 nM in the assay with HCC1599 [29]; 116 nM in the assay on CAL-120 [8]; 20.5 nM in the assay on MDA-MB-231 [9]; 118 nM in the assay with HCC1143 [10]; 104 nM with MDA-MB-436 [11]. Further, the entries for the “EC50, CellTiter-Blue viability” value with Hs578T [12], in the assay with MDA-MB-468 [31] and in the assay on SK-BR-3 were 149 nM, 453 nM and 90.6 nM, respectively. Moreover, the “EC50, CellTiter-Glo” value in the assay on HCC1599 [27] is 1740 nM.
Take `CCN(CC)CCOc1ccc(C(=C(Cl)c2ccccc2)c2ccccc2)cc1` [Clomifene]: the “EC50, CellTox Green” value stood at 3470 nM with BT-474 [13]; 1760 nM with HCC1937 [14]; 6280 nM with CAL-85-1 [15]; 9780 nM in the assay on HCC1599 [32]; 1990 nM in the assay on MDA-MB-231 [17]; 522 nM with MFM-223 [18]. Further, the “EC50, CellTox Green” value with Hs578T [19] is 2260 nM; with DU-4475 [33], 5820 nM; with MDA-MB-453 [34], 5670 nM; in the assay with MCF-10A, 1010 nM. Further, the “EC50, CellTiter-Blue viability” value with CAL-85-1 [22] is 9270 nM; with HDQ-P1 [24] it was 9480 nM; with DU-4475 [25] it was 7320 nM; with MDA-MB-453 [26], 4990 nM; with BT-474 [28], 5530 nM; with HCC1937 [6], 9530 nM. For the same compound, the “EC50, CellTiter-Blue viability” value in the assay on BT-549 [7] stood at 3250 nM; with CAL-120 [8] it was 4600 nM; in the assay with MDA-MB-231 [9], 2830 nM; in the assay on MFM-223 [30], 6930 nM; in the assay with MDA-MB-436 [11] it was 6850 nM; in the assay with MDA-MB-468 [31] it was 3630 nM. Also, the “EC50, CellTiter-Glo” value in the assay with HCC1599 [27] was 2830 nM.
Regarding `CCc1cnn2c(NCc3ccc[n+]([O-])c3)cc(N3CCCC[C@H]3CCO)nc12` [Dinaciclib], the “EC50, CellTox Green” value with BT-474 [13] amounted to 13.2 nM; in the assay with CAL-85-1 [15], 22 nM; in the assay on HCC1599 [32] it was 14.1 nM; in the assay on CAL-51 [2] it was 13 nM; in the assay with MDA-MB-231 [17] it was 8.07 nM; with MFM-223 [18], 22 nM. For the same compound, the “EC50, CellTox Green” value in the assay on Hs578T [19] worked out at 26.4 nM; in the assay on MDA-MB-468 [20], 17.1 nM; in the assay on CAL-148 [4], 28.3 nM; with HDQ-P1 [21] it was 8.27 nM; in the assay with MCF-10A, 77.4 nM. Also, the “EC50, CellTiter-Glo” value with HCC1599 [27] was 14.8 nM.
As for `COc1cc2c(Oc3ccc(NC(=O)C4(C(=O)Nc5ccc(F)cc5)CC4)cc3F)ccnc2cc1OCCCN1CCOCC1` [Foretinib], the “EC50, CellTox Green” value with CAL-51 [2] was 251 nM; in the assay on MDA-MB-231 [17] it was 129 nM; in the assay on HCC1143 [35] it was 693 nM; in the assay with MDA-MB-468 [20], 374 nM; in the assay with CAL-148 [4] it was 712 nM. Further, the “EC50, CellTiter-Blue viability” value in the assay on CAL-51 [5] came to 473 nM; in the assay with CAL-148 [23] it was 675 nM; in the assay on HDQ-P1 [24], 157 nM; in the assay with DU-4475 [25], 748 nM; with CAL-120 [8], 787 nM; with MFM-223 [30], 62.5 nM. In addition, the “EC50, CellTiter-Blue viability” value was 13.8 nM with MDA-MB-436 [11], 756 nM in the assay on Hs578T [12] and above 1000 nM with SK-BR-3.
On to `COc1cc(Nc2ncc(F)c(Nc3ccc4c(n3)N(COP(=O)(O)O)C(=O)C(C)(C)O4)n2)cc(OC)c1OC` [Fostamatinib], for which the “EC50, CellTox Green” value worked out at 725 nM with CAL-85-1 [15], 1.6 nM in the assay on BT-549 [16], 267 nM in the assay on MDA-MB-231 [17] and 1080 nM in the assay with Hs578T [19].
